Experimental data as given in patent publication US10045954B2, “Use of novel anti-HPV pharmaceutical preparation” (INSTITUTE OF BIOMEDICAL ENGINEERING, CHINESE ACADEMY OF …, priority 2013, dated 2018).

Test system: human cervical cancer Caski cells (HPV16 positive)
Assay: Cytotoxicity assay (MTT, Reed-Muench)
Format: cell-based
Conditions: 72 h
Protocol: (1) Cytotoxicity assay: human cervical cancer Caski cells (HPV16 positive) at an exponential phase cultured through a conventional culturing method is digested by a trypsase, such that the attached cells are detached. The cells are suspended in a liquid medium containing 10% of fetal bovine serum, and are cultured by inoculating in a 96-well plate, each well containing 1×10^5 cells. The cells are incubated in a CO2 incubator for 24 h to make the cells be attached. labeled amount of paracetamol or paracetamol pharmaceutical preparation prepared from examples 1-21 is dissolved in DMSO used for cell culture, and then the solution is diluted with the liquid medium into a series of drug culture media with increasing concentrations, wherein the concentrations are sequentially 25, 50, 100, 200 and 400 μg/mL. The culture medium is decanted, 100 μL drug culture medium formulated according to a multiple relationship is added into the administered group, while a culture medium is used instead of the drug solution for the control group, wherein four vice holes are used at each concentration, and the cells are incubated in a CO2 incubator for 72 h. The median toxic concentration (TC50) and maximal atoxic concentration (TC0) are calculated based on a Reed-Muench method, by using a MTT method.

Compound: CC(=O)Nc1ccc(O)cc1 [Example 1, paracetamol]
- TC0: 200 µg/mL
- TC50: >200 mg/L
